According to ChEMBL document CHEMBL1122042, “Chemical synthesis and molecular pharmacology of hydroxylated 1-(1-phenylcyclohexyl-piperidine derivatives” (1982):

Species: Mus musculus
Experiment: Effective dose for inhibition of phencyclidine binding measured in mouse rotarod assay
Format: functional

Row | Compound | ED50 [mg/kg]
1 | Oc1ccccc1C1(N2CCCCC2)CCCCC1 | 18
2 | OC1CCCC(c2ccccc2)(N2CCCCC2)C1 (stereo unspecified) | 49.9
3 | c1ccc(C2(N3CCCCC3)CCCCC2)cc1 [PHENCYCLIDINE] | 4
4 | Oc1ccc(C2(N3CCCCC3)CCCCC2)cc1 | 28
5 | OC1CCN(C2(c3ccccc3)CCCCC2)CC1 | 42
6 | Oc1cccc(C2(N3CCCCC3)CCCCC2)c1 | 2.2
